BindingDB's records for doi:10.1021/bi049459m (University of Florida College of Medicine, 2004)

Legend:
Assay in all cases: Protease Inhibition Assay
[1] = target: T1, Dimer of Gag-Pol polyprotein [489-587,K509R,V521I,L522F,M525I,I543V,L552P,A560V,V571A,I573V,L579M] (Human immunodeficiency virus 1, UniProt P04585, A560V/I543V/I573V/K509R/L522F/L552P/L579M/M525I/V521I/V571A)
T1 construct: 489-587

[2] = target: T2, Dimer of Gag-Pol polyprotein [489-587] (Human immunodeficiency virus 1, UniProt P04585); settings: pH 4.7; 37 °C
T2 construct: 489-587

[3] = target: T3, Dimer of Gag-Pol polyprotein [489-587,K509R,V521I,L522F,M525I,L552P,A560V,V571A,L579M] (Human immunodeficiency virus 1, UniProt P04585, A560V/K509R/L522F/L552P/L579M/M525I/V521I/V571A); settings: pH 4.7; 37 °C
T3 construct: 489-587

[4] = target: T4, Dimer of Gag-Pol polyprotein [489-587,K509R,V521I,L522F,M525I,L552P,A560V,V571A,I573V,L579M] (Human immunodeficiency virus 1, UniProt P04585, A560V/I573V/K509R/L522F/L552P/L579M/M525I/V521I/V571A)
T4 construct: 489-587

[5] = target: T5, Dimer of Gag-Pol polyprotein [489-587,K509R,V521I,L522F,M525I,M535I,L552P,A560V,V571A,I573V,L579M] (Human immunodeficiency virus 1, UniProt P04585, A560V/I573V/K509R/L522F/L552P/L579M/M525I/M535I/V521I/V571A)
T5 construct: 489-587

[6] = target: T6, Dimer of Gag-Pol polyprotein [489-587,K509R,V521I,L522F,M525I,M535I,I543V,L552P,A560V,V571A,I573V,L579M] (Human immunodeficiency virus 1, UniProt P04585, A560V/I543V/I573V/K509R/L522F/L552P/L579M/M525I/M535I/V521I/V571A)
T6 construct: 489-587

[7] = target: T7, Dimer of Gag-Pol polyprotein [489-587,K509R,V521I,L522F,M525I,M535I,L552P,A560V,V571A,L579M] (Human immunodeficiency virus 1, UniProt P04585, A560V/K509R/L522F/L552P/L579M/M525I/M535I/V521I/V571A); settings: pH 4.7; 37 °C
T7 construct: 489-587

[8] = target: T8, Dimer of Gag-Pol polyprotein [489-587,K509R,V521I,L522F,M525I,I543V,L552P,A560V,V571A,L579M] (Human immunodeficiency virus 1, UniProt P04585, A560V/I543V/K509R/L522F/L552P/L579M/M525I/V521I/V571A); settings: pH 4.7; 37 °C
T8 construct: 489-587

Cc1ccccc1CNC(=O)[C@H]1N(C(=O)[C@@H](O)[C@H](Cc2ccccc2)NC(=O)c2cccc(O)c2C)CSC1(C)C [AG1776]
Ki [1]: 9.4 nM | Ki [2]: 0.021 nM | Ki [3]: 0.04 nM | Ki [4]: 0.55 nM | Ki [5]: 2.2 nM | Ki [6]: 5.6 nM | Ki [7]: 0.5 nM | Ki [8]: 0.19 nM
